Where two headings read alike, the source gives them in different places.
Experiments:
[1] = target: T1, Hes1 dimer formation (Hes1-Hes1 interaction) (Rattus norvegicus, UniProt Q04666); test: Hes1-Hes1 interaction fluorescent plate assay (Hes1 dimer formation inhibition); format: binding; details: for remaining activity at 5 µM: 5 μM compound; for remaining activity at 100 µM: 100 μM compound
T1 construct: Glutathione-S-transferase (GST) fused rat Hes1(3–281) protein was expressed in Escherichia coli; GST (N, cleaved yes); GST (N); made in house; host or cells: Escherichia coli JM109 (pGEX-ratHes1 3-281)
T1 sequence (Q04666 3-281): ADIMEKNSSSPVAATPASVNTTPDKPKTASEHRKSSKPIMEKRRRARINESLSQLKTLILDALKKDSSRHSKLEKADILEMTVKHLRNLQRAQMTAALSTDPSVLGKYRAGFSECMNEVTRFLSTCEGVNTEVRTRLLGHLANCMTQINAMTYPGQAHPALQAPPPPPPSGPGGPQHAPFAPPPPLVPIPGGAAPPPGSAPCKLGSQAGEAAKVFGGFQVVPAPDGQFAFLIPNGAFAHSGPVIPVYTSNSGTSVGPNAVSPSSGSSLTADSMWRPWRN
Text: It is essential to inhibit undesired PPIs in drug development, and bioactivity-guided isolation using the inhibitory activity of PPIs is an attractive method to obtain effective inhibitors. However, currently there are only a few examples of such approaches using PPI assay systems[22],[23]. We previously developed a Hes1-Hes1 interaction fluorescent plate assay and reported the screening results of our natural products compound library (Fig. 2A)[24]. Glutathione-S-transferase (GST) fused rat Hes1(3–281) protein was expressed in Escherichia coli and purified rat Hes1 protein was immobilized on the bottom of 96 well plates. We prevented GST-GST interactions, which would result in false positives, by preparing GST-free Hes1 protein by GST cleavage with Turbo3C protease. After labeling Hes1 with Cy3, this florescent Hes1 protein was added to the wells of the above plate and incubated for 24 h at 4 °C. Hes1-Hes1 interaction was successfully detected as Cy3 fluorescence intensity. Using this assay system, we screened our 118 plant extract library and identified the MeOH extract of Psidium guajava leaves to contain naturally occurring compounds that inhibit Hes1 dimer formation. The MeOH extract (29.9 g) was fractionated using Diaion HP-20 with a MeOH-acetone solvent system to afford fractions 1A to 1C. Active fraction 1A (27.2 g) was suspended in 10% aq. MeOH and partitioned with hexane, EtOAc and BuOH to obtain hexane (1.1 g), EtOAc (5.7 g), BuOH (4.7 g) and aqueous (18.9 g) soluble fractions. Part of the active BuOH soluble fraction was subjected to ODS column chromatography and reverse-phase HPLC. Activity-guided separation yielded ten compounds (1–10; Fig. 3). The isolated compounds were identified as morin (1)[25], isoquercitrin (2)[26], methyl gallate (3)[27], (+)-catechin (4)[28],[29], dihydrophaseic acid (5)[30], quercetin (6)[26],[31], avicularin (7)[32],[33], gallic acid (8)[34], protocatechuic acid (9)[35] and 4-hydroxybenzoic acid (10)[36] based on comparisons of their spectral data with spectra in the literature.
Hes1-bound microplate wells[24] (Nunc Immobilizer^TM Amino Plate, Thermo) were incubated with 50 μL of Cy3-labeled-Hes1 in NET-N buffer (NET buffer (20 mM Tris-HCl, pH 7.5, 200 mM NaCl, 1 mM EDTA) containing 0.05% Nonidet® P-40, ca. 7 mg/L, dye/protein = 0.4) for 24 h at 4 °C. After removing the protein solution, the wells were washed twice with 200 μL of PBST, then each compound solution (in NET-N buffer, 50 μL) was added and the plates were incubated for 1 h at RT in the dark. The wells were washed twice with 200 μL of PBST, then dried under reduced pressure for 1 h in the dark. The Cy3 dye was excited at 544 nm and emission was monitored at 590 nm using a microplate reader (Fluoroskan Ascent, Thermo Labsystems, Vantaa, Finland). The assays were typically carried out in three individual wells, and the mean value and SD were calculated. The equilibrium between dimer formation between Cy3-Hes1/Cy3-Hes1 (in solution) and Cy3-Hes1/immobilized-Hes1 allowed the detection of Cy3-Hes1/immobilized-Hes1.
Typical procedure; Nunc Immobilizer^TM Amino 96 well Plate, white (Nalge Nunc Int., NY, USA) was used for immobilizing of Hes1. The micro plate wells were incubated with 100 µl of Hes1 (10 µg/mL in PBS) 2 h at 4 °C. After removing protein solution, the wells were incubated for 2 h at 4 °C with 100 µL of 10 mM ethanolamine (in 100 mM Na2CO3 buffer, pH 9.6) to block remaining activated units on the well. Then, wells were washed twice with 200 µL of PBST (PBS containing 0.05% Tween 20).
The Cy3 dye reagent was prepared as 1 vial of Cy3 monofunctional dye reagent (succinimidylester type; GE Healthcare, Buckinghamshire, UK) in DMSO (50 µL) and stored at -20 °C. Cy3-labeled Hes1 was prepared by mixing of protein in PBS with Cy3 dye reagent in DMSO (typically 0.6 µL of DMSO solution to 1 mL of 10 mg/L protein solution in PBS) for 30 min at 4 °C in the dark. […]

NSCs = details: cited from earlier work
[2] = system: C17.2 mouse neural stem cells; test: Neural stem cell differentiation assay (Tuj1/GFAP immunofluorescence staining); format: cell-based; details: C17.2 cells, 6 days, positive control
Text: We recently developed another protein-based screening method, the target protein oriented natural products isolation method (TPO-NAPI) using protein beads (Fig. 2B). Agalloside, inohanamine, α-mangostine, BE-14106, isomicromonolactam, staurosporin and linarin were isolated as Hes1 binding compounds using the TPO-NAPI method[15],[17]. Rat Hes1 (1–95) containing basic and helix-loop-helix domains was immobilized because the helix-loop-helix domain is known to be important for Hes1-Hes1 interaction; therefore, utilizing this domain in the beads method would likely be effective for screening Hes1 dimer inhibitors. GST-Hes1 immobilized beads were prepared by mixing freshly prepared GST-Hes1 protein with glutathione Sepharose 4B beads. GST-only beads were prepared as a control. After incubating the beads with plant MeOH extracts at 4 °C for 2 h, bound compounds were eluted by adding EtOH and heating at 100 °C for 3 min, then the eluted compounds were analyzed by HPLC. […] The MeOH extract (64.6 g) of Terminalia chebula bark was partitioned with hexane, EtOAc and BuOH to obtain hexane (1.5 g), EtOAc (3.6 g), BuOH (42.6 g), and aqueous (20.5 g) soluble fractions. The EtOAc fraction contained the target peak and was subjected to silica gel column chromatography to give eight fractions (1A-H). Fraction 1D contained the target peak and was separated by ODS column chromatography and reverse-phase HPLC to give compound 11 (0.4 mg). Compound 11 was identified as 4-O-(4″-O-galloyl-α-L-rhamnopyranosyl)ellagic acid by comparison of its NMR data with reported spectral data[37]. […] This is the strongest Hes1 dimer inhibitor reported to date. The ability of 11 to accelerate the differentiation of C17.2 mouse neural stem cells was evaluated (Fig. 5). C17.2 cells (2 × 10^5 cells/mL) were seeded in a poly-L-lysine-coated 24 well plates and incubated for 24 h, then the cells were treated with DMSO (control), 100 μM valproic acid (VPA), 5 μM retinoic acid (RA) (positive controls) or 11 (1 or 5 μM) for 6 days. A confocal microscope was used to obtain images of differentiated neural cells after immunostaining class III β-tubulin (Tuj1) in neurons, and glial fibrillary acidic protein (GFAP) in astrocytes and nuclei (TO-PRO-3). […] In contrast, the control dish containing cells treated with DMSO contained small number of neurons.
C17.2 cells were cultured in proliferation medium [DMEM (DS Pharma Biomedical Co., Ltd. Osaka, Japan) supplemented with 10% fetal bovine serum (Biowest, Nuaillé, France), 5% horse serum (Gibco, Life Technologies, Tokyo, Japan)]. Neural differentiation of C17.2 cells was initiated by transferring the cells to differentiation medium [Neurobasal Medium (Gibco) supplemented with 2% B-27 without vitamin A (Gibco), 1% antibiotic-antimycotic (Gibco)]. All cultures were maintained in a humidified incubator at 37 °C in 5% CO2/95% air.
C17.2 cells were dissociated using the proliferation medium 2 × 10^5 cells/mL on cover glass (MATSUNAMI GLASS) coated with poly-L-lysine and fibronectin/laminin. After incubation for 24 h, cells were washed with D-MEM and treated with individual compounds in differentiation medium for 6 days.
C17.2 cells were fixed with 4% paraformaldehyde in PBS for 20 min at room temperature (r.t.) and washed with 1% BSA in PBS three times. After blocking with 10% BSA in 0.3% Triton X-100 in PBS for 45 min at r.t., fixed cells were incubated with primary antibodies (anti-βIII-Tubulin; Neuronal Class III, Mouse-Mono, 1:400, R&D Systems^TM; anti-GFAP, 1:400, VERITAS) for 12 h at 4 °C. After washing three times with 1% BSA in PBS (500 μL/well), cells were incubated with secondary antibodies (Alexa Fluor® 488 goat anti-mouse IgG (H + L), 1:400, Life Technologies; Alexa Fluor® 555 goat ant-rabbit IgG (H + L), 1:200, Life Technologies) for 1 hr at r.t. in the dark. […]

[3] = Hes1 dimer formation inhibitory activity IC50, Cy3-labeled Hes1 / immobilized Hes1, compound 1 h at RT
[4] = 24 h, 0 μM = 100, read-out: Hes1 dimer formation rate (%)
[5] = 24 h, 25 μM compound, 0 μM = 100, read-out: Hes1 dimer formation rate (%)
[6] = 24 h, 50 μM compound, 0 μM = 100, read-out: Hes1 dimer formation rate (%)
[7] = Cy3-labeled Hes1 / immobilized Hes1, compound 1 h at RT, read-out: Hes1 dimer formation inhibitory activity IC50
[8] = 24 h, 10 μM compound, 0 μM = 100, read-out: Hes1 dimer formation rate (%)
[9] = 24 h, read-out: Hes1 dimer formation rate (%)

## O=C(O)c1cc(O)c(O)c(O)c1 [Commercially available gallic acid, gallic acid, reference compound]
[1]; [3]
  IC50: 8.9 µM

## O=c1c(O)c(-c2ccc(O)cc2O)oc2cc(O)cc(O)c12 [Compound 1, morin]
[1]; [4]
  remaining activity at 5 µM: 89.7%
[1]; [5]
  remaining activity at 25 µM: 79.2%
[1]; [6]
  remaining activity at 50 µM: 37.8%
[1]; [7]
  IC50: 40.8 µM

## O=c1c(O[C@@H]2O[C@H](CO)[C@@H](O)[C@H](O)[C@H]2O)c(-c2ccc(O)c(O)c2)oc2cc(O)cc(O)c12 [Compound 2, isoquercitrin]
[1]; 24 h, 20 μM compound, 0 μM = 100, read-out: Hes1 dimer formation rate (%)
  remaining activity at 20 µM: 67.2%
[1]; 24 h, 60 μM compound, 0 μM = 100, read-out: Hes1 dimer formation rate (%)
  remaining activity at 60 µM: 34.5%
[1]; 24 h, 80 μM compound, 0 μM = 100, read-out: Hes1 dimer formation rate (%)
  remaining activity at 80 µM: 28.3%
[1]; [7]
  IC50: 35.7 µM

## COC(=O)c1cc(O)c(O)c(O)c1 [Compound 3, methyl gallate]
[1]; [4]
  remaining activity at 5 µM: 68.4%
[1]; [8]
  remaining activity at 10 µM: 54.3%
[1]; [5]
  remaining activity at 25 µM: 39.2%
[1]; [7]
  IC50: 12.7 µM

## Oc1cc(O)c2c(c1)O[C@H](c1ccc(O)c(O)c1)[C@@H](O)C2 [Compound 4, (+)-catechin]
[1]; [5]
  remaining activity at 25 µM: 95.4%
[1]; [6]
  remaining activity at 50 µM: 79.2%
[1]; [4]
  remaining activity at 100 µM: 78.8%

## CC(C=CC1(O)C2(C)COC1(C)CC(O)C2)=CC(=O)O (stereo not drawn) [Compound 5, dihydrophaseic acid]
[1]; [5]
  remaining activity at 25 µM: 125%
[1]; [6]
  remaining activity at 50 µM: 122%
[1]; [4]
  remaining activity at 100 µM: 127%

## O=c1c(O)c(-c2ccc(O)c(O)c2)oc2cc(O)cc(O)c12 [Compound 6, quercetin]
[1]; 24 h, 30 μM compound, 0 μM = 100, read-out: Hes1 dimer formation rate (%)
  remaining activity at 30 µM: 82.5%
[1]; 24 h, 40 μM compound, 0 μM = 100, read-out: Hes1 dimer formation rate (%)
  remaining activity at 40 µM: 66.5%
[1]; [6]
  remaining activity at 50 µM: 35.7%
[1]; [7]
  IC50: 45.1 µM

## O=c1c(O[C@@H]2O[C@@H](CO)[C@H](O)[C@H]2O)c(-c2ccc(O)c(O)c2)oc2cc(O)cc(O)c12 [Compound 7, avicularin]
[1]; [4]
  remaining activity at 5 µM: 74.6%
[1]; [5]
  remaining activity at 25 µM: 51.3%
[1]; [6]
  remaining activity at 50 µM: 23.8%
[1]; [7]
  IC50: 26.5 µM

## O=C(O)c1cc(O)c(O)c(O)c1 [Compound 8, gallic acid]
[1]; [4]
  remaining activity at 5 µM: 53.9%
[1]; [8]
  remaining activity at 10 µM: 50.7%
[1]; [5]
  remaining activity at 25 µM: 26.2%
[1]; [3]
  IC50: 10.3 µM

## O=C(O)c1ccc(O)c(O)c1 [Compound 9, protocatechuic acid]
[1]; [9]
  remaining activity at 10 µM: 61.7%
  remaining activity at 25 µM: 49.3%
  remaining activity at 50 µM: 44.9%
[1]; [7]
  IC50: 23.8 µM

## O=C(O)c1ccc(O)cc1 [Compound 10, 4-hydroxybenzoic acid]
[1]; [5]
  remaining activity at 25 µM: 58.8%
[1]; [6]
  remaining activity at 50 µM: 50.4%
[1]; [4]
  remaining activity at 100 µM: 39.8%
[1]; [7]
  IC50: 51.2 µM

## CCCC(=O)/C=C/C1=C(O)C(=O)c2cc(O)c(O)cc2C1=O [Lindbladione]
NSCs
  differentiation of NSCs to neurons: accelerated the differentiation of NSCs to neurons

## CC1=C(/C=C/C(C)=C/C=C/C(C)=C/C(=O)O)C(C)(C)CCC1 [RA, retinoic acid, reference compound]
[2]; 5 μM
  number of neurons: increased

## CCCC(CCC)C(=O)O [VPA, valproic acid, reference compound]
[2]; 100 μM
  number of neurons: increased
